Data set [1] in a line: Metabolic stability test in liver S9. Type of data set: in vitro ADME. The conditions noted are these: pH 7.4, human liver S9 2 mg protein/mL, LC/MS; for remaining at 10 min: unchanged form after 10 minutes at 37°C, read-out: Remaining rate in human liver S9 (%/10min); for remaining at 1 h: unchanged form after 60 minutes at 37°C, read-out: Remaining rate in human liver S9 (%/60min). The method, then: Human liver S9 (final concentration: 2 mg protein/mL), was suspended in 100 mM potassium phosphate buffer (pH 7.4, containing β-nicotinamide adenine dinucleotide phosphate: 1.3 mM, D-glucose-6- phosphate: 3.3 mM, magnesium chloride: 3.3 mM, glucose-6-phosphate dehydrogenase:0.4 U/mL). The suspension was mixed with a solution of a sample dissolved in DMSO. The solution was incubated at 37°C for 0, 10 and 60 minutes, and an acetonitrile containing formic acid (final concentration: 0.1%) was added thereto. The solutions were centrifuged, and the concentration of the sample (unchanged form) in the supernatant was determined by high performance liquid chromatography/mass spectrometry (LC/MS). Based on the data obtained, remaining rate (%) was calculated according to the following equation. Remaining rate(%) = amount of sample 0,10, or 60 minutes after [formula] incubation/amount of sample at zero time after incubation × 100 [formula]
(§1) With respect to the compounds obtained in Working Examples according to the present invention (Compounds 1-1 to 1-115, 2-1, 3-1, 3-2, and 4-1 to 4-4), the results of the remaining rate in human liver S9 and plasma are shown in Tables 28 to 32.

A short description of data set [2]: Metabolic stability test in plasma. Type of data set: in vitro ADME, human. The conditions noted are these: LC/MS; for remaining at 10 min: unchanged form after 10 minutes at 37°C in human plasma, read-out: Remaining rate in human plasma (%/10min); for remaining at 1 h: unchanged form after 60 minutes at 37°C in human plasma, read-out: Remaining rate in human plasma (%/60min). The method, then: A sample dissolved in DMSO was added to plasma of human or animal species (mouse and hamster). The solutions were incubated at 37°C for 0, 10 and 60 minutes, and acetonitrile containing formic acid (final concentration: 0.1%) was added thereto. The solutions were centrifuged, and the concentration of the sample (unchanged form) in the supernatant was determined by high performance liquid chromatography/mass spectrometry (LC/MS). Based on the data obtained, the remaining rate (%) was calculated according to the following equation. Remaining rate(%) = amount of sample 0,10, or 60 minutes after incubation/amount of sample at zero time after incubation × 100 [formula]
as §1

The nature of data set [3]: Stability test in buffer (pH 7.4). Type of data set: physicochemical. The conditions noted are these: phosphate buffer/acetonitrile 7:3, 100 mM potassium phosphate buffer (pH 7.4) and acetonitrile 7:3 (v/v), LC/MS; for remaining at 10 min: 10 minutes at 37°C, read-out: Buf. remaining rate (%/10min); for remaining at 1 h: 60 minutes at 37°C, read-out: Buf. remaining rate (%/60min). As for the experimental part: In the tables, Buf. remaining rate was determined by stability test in buffer (pH 7.4) as described below. A sample dissolved in DMSO was mixed with a mixed solution of 100 mM potassium phosphate buffer and acetonitrile in the ratio of 7:3 (v/v). The mixture was incubated at 37°C for 0, 10, and 60 minutes, and acetonitrile containing formic acid (final concentration: 0.1%) was added thereto. The solution was centrifuged, and the concentration of the sample (unchanged form) in the supernatant was determined by high performance liquid chromatography/mass spectrometry (LC/MS). Based on the data obtained, Buf. remaining rate (%) was calculated according to the following equation. Buf.remaining rate(%) = amount of sample 0,10, or 60 minutes after incubation/amount of sample at zero time after incubation × 100 [formula]

Turning to `COC(=O)c1ccc(OC(=O)CCCc2ccc(NC(=O)c3cccnc3-c3ccc(C(F)(F)F)cc3)c(C(=O)N(C)C)c2)cc1` [Compound 1-28, 4-[4-(3-dimethylcarbamoyl-4-{[2-(4-trifluoromethylphenyl)pyridine-3-carbonyl]amino}phenyl)butyryloxy]benzoic acid methyl ester], the remaining at 10 min in data set [1] is 0%; in data set [2], 0%; in data set [3] it was 101%. The remaining at 1 h in data set [1] stood at 0%; in data set [2], 0%; in data set [3] it was 102%.
`CC(C)OC(=O)c1ccc(OC(=O)CCCc2ccc(NC(=O)c3ccncc3-c3ccc(C(F)(F)F)cc3)c(C(=O)N(C)C)c2)cc1` [Compound 1-29, 4-[4-(3-dimethylcarbamoyl-4-{[3-(4-trifluoromethylphenyl)pyridine-4-carbonyl]amino}phenyl)butyryloxy]benzoic acid isopropyl ester]: the remaining at 10 min turned out to be 1% in data set [1], 41% in data set [2] and 98% in data set [3]. Further, the remaining at 1 h came to 0% in data set [1], 0% in data set [2] and 98% in data set [3].
For `COC(=O)c1ccc(OC(=O)CCCc2ccc(NC(=O)c3ccncc3-c3ccc(C(F)(F)F)cc3)c(C(=O)N(C)C)c2)cc1` [Compound 1-30, 4-[4-(3-dimethylcarbamoyl-4-{[3-(4-trifluoromethylphenyl)pyridine-4-carbonyl]amino}phenyl)butyryloxy]benzoic acid methyl ester], the values for the remaining at 10 min in data set [1], in data set [2] and in data set [3] were 0%, 0% and 99%, respectively. Further, the results for the remaining at 1 h in data set [1], in data set [2] and in data set [3] were 0%, 0% and 99%, respectively.
For `CC(C)OC(=O)c1ccc(OC(=O)CCCc2ccc(NC(=O)c3cccnc3-c3ccc(C(F)(F)F)cc3)c(C(=O)N(C)C)c2)cc1` [Compound 1-31, 4-[4-(3-dimethylcarbamoyl-4-{[2-(4-trifluoromethylphenyl)pyridine-3-carbonyl]amino}phenyl)butyryloxy]benzoic acid isopropyl ester], the remaining at 10 min was found to be 0% in data set [1], 26% in data set [2] and 101% in data set [3]. Besides, the remaining at 1 h in data set [1] came to 0%; in data set [2], 0%; in data set [3], 102%.
As for `COC(=O)c1ccc(OC(=O)CCCc2ccc(NC(=O)c3ccc(C)nc3-c3ccc(C(F)(F)F)cc3)c(C(=O)N(C)C)c2)cn1` [Compound 1-32, 5-[4-(3-dimethylcarbamoyl-4-{[6-methyl-2-(4-trifluoromethylphenyl)pyridine-3-carbonyl]amino}phenyl)butyryloxy]pyridine-2-carboxylic acid methyl ester], the remaining at 10 min was 0% in data set [1], 0% in data set [2] and 100% in data set [3]. In addition, the results for the remaining at 1 h in data set [1], in data set [2] and in data set [3] were 0%, 0% and 97%, respectively.
With `COC(=O)c1ccc(OC(=O)CCCc2ccc(NC(=O)c3ccccc3-c3ccc(C(F)(F)F)cc3)c(C(=O)N(C)C)c2)c(C(=O)OC)c1` [Compound 1-33, 4-(4-{3-dimethylcarbamoyl-4-[(4'-trifluoromethylbiphenyl-2-carbonyl)amino]phenyl}butyryloxy)isophthalic acid dimethyl ester], the remaining at 10 min turned out to be 0% in data set [1], 0% in data set [2] and 98% in data set [3]. The remaining at 1 h in data set [1] stood at 0%; in data set [2] it was 0%; in data set [3], 102%.
Regarding `COC(=O)c1cc(C)c(OC(=O)CCCc2ccc(NC(=O)c3ccccc3-c3ccc(C(F)(F)F)cc3)c(C(=O)N(C)C)c2)c(Cl)c1` [Compound 1-34, 3-chloro-4-(4-{3-dimethylcarbamoyl-4-[(4'-trifluoromethylbiphenyl-2-carbonyl)amino]phenyl}butyryloxy)-5-methylbenzoic acid methyl ester], the remaining at 10 min in data set [1] stood at 16%; in data set [2] it was 52%; in data set [3], 98%. Moreover, the figures for the remaining at 1 h in data set [1], in data set [2] and in data set [3] were 4%, 0% and 103%, respectively.
For `COC(=O)c1cc(C)c(OC(=O)CCCc2ccc(NC(=O)c3ccc(C)nc3-c3ccc(C(F)(F)F)cc3)c(C(=O)N(C)C)c2)c(Cl)c1` [Compound 1-35, 3-chloro-4-[4-(3-dimethylcarbamoyl-4-{[6-methyl-2-(4-trifluoromethylphenyl)pyridine-3-carbonyl]amino}phenyl)butyryloxy]-5-methylbenzoic acid methyl ester], the remaining at 10 min in data set [1] came to 5%; in data set [2], 43%; in data set [3] it was 100%. Moreover, the remaining at 1 h in data set [1] was 0%; in data set [2], 0%; in data set [3], 105%.
For `COC(=O)c1cc(Cl)c(OC(=O)CCCc2ccc(NC(=O)c3ccc(C)nc3-c3ccc(C(F)(F)F)cc3)c(C(=O)N(C)C)c2)c(OC)c1` [Compound 1-36, 3-chloro-4-[4-(3-dimethylcarbamoyl-4-{[6-methyl-2-(4-trifluoromethylphenyl)pyridine-3-carbonyl]amino}phenyl)butyryloxy]-5-methoxybenzoic acid methyl ester], the remaining at 10 min in data set [1] was determined as 3%; in data set [2] it was 0%; in data set [3], 100%. For the same molecule, the remaining at 1 h was 0% in data set [1], 0% in data set [2] and 103% in data set [3].
With `COc1cc(C(=O)OC(C)C)cc(Cl)c1OC(=O)CCCc1ccc(NC(=O)c2ccc(C)nc2-c2ccc(C(F)(F)F)cc2)c(C(=O)N(C)C)c1` [Compound 1-37, 3-chloro-4-[4-(3-dimethylcarbamoyl-4-{[6-methyl-2-(4-trifluoromethylphenyl)pyridine-3-carbonyl]amino}phenyl)butyryloxy]-5-methoxybenzoic acid isopropyl ester], the remaining at 10 min in data set [1] was 37%; in data set [2] it was 0%; in data set [3], 99%. For the same molecule, the figures for the remaining at 1 h in data set [1], in data set [2] and in data set [3] were 11%, 0% and 99%, respectively.
For the molecule `COc1cc(C(=O)OC(C)C)cc(F)c1OC(=O)CCCc1ccc(NC(=O)c2ccc(C)nc2-c2ccc(C(F)(F)F)cc2)c(C(=O)N(C)C)c1` [Compound 1-38, 4-[4-(3-dimethylcarbamoyl-4-{[6-methyl-2-(4-trifluoromethylphenyl)pyridine-3-carbonyl]amino}phenyl)butyryloxy]-3-fluoro-5-methoxybenzoic acid isopropyl ester], the remaining at 10 min was found to be 11% in data set [1], 0% in data set [2] and 101% in data set [3]. Besides, the remaining at 1 h in data set [1] came to 2%; in data set [2], 0%; in data set [3], 102%.
In the case of `COC(=O)c1cc(OC)c(OC(=O)CCCc2ccc(NC(=O)c3ccc(C)nc3-c3ccc(C(F)(F)F)cc3)c(C(=O)N(C)C)c2)c(OC)c1` [Compound 1-39, 4-[4-(3-dimethylcarbamoyl-4-{[6-methyl-2-(4-trifluoromethylphenyl)pyridine-3-carbonyl]amino}phenyl)butyryloxy]-3,5-dimethoxybenzoic acid methyl ester], the remaining at 10 min came to 5% in data set [1], 0% in data set [2] and 98% in data set [3]. Also, the remaining at 1 h amounted to 2% in data set [1], 0% in data set [2] and 104% in data set [3].
